Results as given in patent US7897326B2, “Peroxisome-proliferator activated receptor-alpha agonists for organ preservation” (University of Pittsburgh-of the Commonwealth System of …, priority 2006, dated 2011).
Counter-ions that a name gives are not always drawn.

Tests used:
rat kidneys [1] = assay: Light microscopy histology of isolated rat kidneys perfused 12 hours at 37° C. with L-15; details: for histological preservation as assessed by light microscopy (screen of pharmacological agents): agent added to L-15 perfusate, 12-hour perfusion at 37° C.; for histology at the light microscopic level / histology score (0 = unrecognizable micro-structure, 10 = 30-minute flushed kidney), FIG. 1: mannitol 20 grams/L, gemfibrozil 50 mg/L, 12-hour perfusion; for histology at the light microscopic level: vs L-15 alone; for histology score (0 = unrecognizable micro-structure, 10 = 30-minute flushed kidney), FIG. 1: blinded observer
Protocol: Animals. Male Sprague-Dawley rats, 15 to 20 weeks-of-age, were housed in a University of Pittsburgh Medical Center animal care facility (temperature 22 EC; light cycle 12 hours; relative humidity 55%). Animals were fed Pro Laboratory RMH 3000 rodent diet (PMI Nutrition Inc., St. Louis, Mo.) and were given water ad libitum. Institutional guidelines for animal welfare were followed, and the Institutional Animal Care and Use Committee approved experimental protocols.
Preparation of Perfusion System. Due to bacterial infection associated with chronic kidney perfusion at 37° C., rat kidneys were perfused in a sterile environment. A glass perfusion system (Hugo Sachs Elektronik-Harvard Apparatus GmbH), which allowed for autoclaving and ultraviolet-light sterilization without damage to the structural integrity of the system, was used in all experiments. This system included the following components arranged in series: a jacketed glass perfusate reservoir for warming and initial oxygenation of perfusate; a jacketed glass-oxygenator for additional oxygenation; a Windkessel chamber for absorption of pulsations; a jacketed heat exchanger for warming the perfusate and trapping bubbles just before the perfusate enters the kidney; and a jacketed organ chamber to keep the kidney's surrounding environment at 37° C.
Drug Preparation. Leibovitz L-15 cell culture medium (Sigma, St. Louis, Mo.) was mixed according to the manufacture's specifications to make 2 liters and 120 mg of penicillin was added. The pH of one liter of L-15 was adjusted to 7.4, and this solution was used during the kidney isolation procedure. The other liter was further prepared with addition of various pharmacological agents, and then the pH adjusted to 7.4. Both solutions were then filtered (0.22 microns) into 1 liter containers. The solution with the experimental drug was then perfused through the kidney perfusion system at a rate of 2.6 ml/min. The other solution was placed underneath the hood where the surgery was to be done.
Kidney Isolation. Kidneys were isolated under a laminar flow hood (Labconco) fitted with a separate roller pump. The operator used sterilized latex gloves with frequent application of 75% alcohol to gloves and instruments throughout the course of the surgery. Gloves were replaced anytime the operator's hands left the surgical hood. Animals were anesthetized with Inactin (90 mg/kg, ip; Sigma), the abdomen was shaved, washed with 75% alcohol, and covered with autoclaved paper towels. The tubing, which would eventually be required for isolation, was assembled and placed in the roller pump. This tubing consisted of three sequentially smaller sections, the middle of which was the pump tubing (Harvard Apparatus). The smallest of the sections was linked, using an adaptor connector, to PE-50 tubing (which had been previously soaked in alcohol for at least 2 days). This PE-50 tubing was for insertion into the renal artery. The largest size tubing was placed into the 1 liter of room temperature L-15. The pump was turned on for a brief time, allowing all tubing to be filled with L-15 medium to remove all air bubbles from the tubing. The skin covering the abdominal cavity was cut horizontally. A light spray of alcohol was applied to the area to remove pieces of hair, followed by a horizontal cut in the same area through the muscle; exposing the internal organs. A section of sterile gauze was set to the left of the animal, and the large/small intestines were gently pulled out of the abdominal cavity and wrapped in the gauze. […] All side branches of the renal artery and vein were ligated and cut. Next, the aorta, vena cava, renal artery and renal vein were identified, cleaned of fat and connective tissue and dissected free, and ligatures were loosely placed around these vessels. […]

rat kidneys [2] = assay: Apoptag (TUNEL) staining for apoptosis in 12-hour perfused rat kidneys; details: mannitol 20 grams/L, gemfibrozil 50 mg/L; vs L-15 alone
Protocol: (§1) Drug Preparation. Leibovitz L-15 cell culture medium (Sigma, St. Louis, Mo.) was mixed according to the manufacture's specifications to make 2 liters and 120 mg of penicillin was added. The pH of one liter of L-15 was adjusted to 7.4, and this solution was used during the kidney isolation procedure. The other liter was further prepared with addition of various pharmacological agents, and then the pH adjusted to 7.4. Both solutions were then filtered (0.22 microns) into 1 liter containers. The solution with the experimental drug was then perfused through the kidney perfusion system at a rate of 2.6 ml/min. The other solution was placed underneath the hood where the surgery was to be done. Kidney Isolation. Kidneys were isolated under a laminar flow hood (Labconco) fitted with a separate roller pump. The operator used sterilized latex gloves with frequent application of 75% alcohol to gloves and instruments throughout the course of the surgery. Gloves were replaced anytime the operator's hands left the surgical hood. Animals were anesthetized with Inactin (90 mg/kg, ip; Sigma), the abdomen was shaved, washed with 75% alcohol, and covered with autoclaved paper towels. The tubing, which would eventually be required for isolation, was assembled and placed in the roller pump. This tubing consisted of three sequentially smaller sections, the middle of which was the pump tubing (Harvard Apparatus). […]

rat kidney tissue = assay: Electron microscopy of isolated rat kidneys perfused 12 hours with L-15; details: one kidney per group; mannitol 20 grams/L, gemfibrozil 50 mg/L; vs L-15 alone
Protocol: Drug Preparation. Leibovitz L-15 cell culture medium (Sigma, St. Louis, Mo.) was mixed according to the manufacture's specifications to make 2 liters and 120 mg of penicillin was added. The pH of one liter of L-15 was adjusted to 7.4, and this solution was used during the kidney isolation procedure. The other liter was further prepared with addition of various pharmacological agents, and then the pH adjusted to 7.4. Both solutions were then filtered (0.22 microns) into 1 liter containers. The solution with the experimental drug was then perfused through the kidney perfusion system at a rate of 2.6 ml/min. The other solution was placed underneath the hood where the surgery was to be done. Kidney Isolation. Kidneys were isolated under a laminar flow hood (Labconco) fitted with a separate roller pump. The operator used sterilized latex gloves with frequent application of 75% alcohol to gloves and instruments throughout the course of the surgery. Gloves were replaced anytime the operator's hands left the surgical hood. Animals were anesthetized with Inactin (90 mg/kg, ip; Sigma), the abdomen was shaved, washed with 75% alcohol, and covered with autoclaved paper towels. The tubing, which would eventually be required for isolation, was assembled and placed in the roller pump. This tubing consisted of three sequentially smaller sections, the middle of which was the pump tubing (Harvard Apparatus). The smallest of the sections was linked, using an adaptor connector, to PE-50 tubing (which had been previously soaked in alcohol for at least 2 days). This PE-50 tubing was for insertion into the renal artery. The largest size tubing was placed into the 1 liter of room temperature L-15. The pump was turned on for a brief time, allowing all tubing to be filled with L-15 medium to remove all air bubbles from the tubing. The skin covering the abdominal cavity was cut horizontally. A light spray of alcohol was applied to the area to remove pieces of hair, followed by a horizontal cut in the same area through the muscle; exposing the internal organs. A section of sterile gauze was set to the left of the animal, and the large/small intestines were gently pulled out of the abdominal cavity and wrapped in the gauze. […] All side branches of the renal artery and vein were ligated and cut. Next, the aorta, vena cava, renal artery and renal vein were identified, cleaned of fat and connective tissue and dissected free, and ligatures were loosely placed around these vessels. The infra-renal aorta was ligated, a small clamp was placed on the aorta just above the ligation but below the renal artery, a cut was made between the clamp and ligation, and the PE-50 tubing was inserted, secured with a ligature and advanced into the left renal artery. […]

Na+-K+-ATPase-α1 = assay: Western blotting and densitometry of Na+-K+-ATPase-α1 in 12-hour perfused rat kidneys; details: mannitol 20 grams/L, gemfibrozil 50 mg/L; 12-hour perfusion
Protocol: as §1

rat kidneys [3] = assay: Urine collection from isolated perfused rat kidney; details: 12 hours of perfusion; mannitol 20 grams/L, gemfibrozil 50 mg/L
Protocol: as §1

rat kidneys [4] = assay: Perfusion pressure of isolated perfused rat kidney over 12 hours; details: mannitol 20 grams/L, gemfibrozil 50 mg/L
Protocol: Drug Preparation. Leibovitz L-15 cell culture medium (Sigma, St. Louis, Mo.) was mixed according to the manufacture's specifications to make 2 liters and 120 mg of penicillin was added. The pH of one liter of L-15 was adjusted to 7.4, and this solution was used during the kidney isolation procedure. The other liter was further prepared with addition of various pharmacological agents, and then the pH adjusted to 7.4. Both solutions were then filtered (0.22 microns) into 1 liter containers. The solution with the experimental drug was then perfused through the kidney perfusion system at a rate of 2.6 ml/min. The other solution was placed underneath the hood where the surgery was to be done. Kidney Isolation. Kidneys were isolated under a laminar flow hood (Labconco) fitted with a separate roller pump. The operator used sterilized latex gloves with frequent application of 75% alcohol to gloves and instruments throughout the course of the surgery. Gloves were replaced anytime the operator's hands left the surgical hood. Animals were anesthetized with Inactin (90 mg/kg, ip; Sigma), the abdomen was shaved, washed with 75% alcohol, and covered with autoclaved paper towels. The tubing, which would eventually be required for isolation, was assembled and placed in the roller pump. This tubing consisted of three sequentially smaller sections, the middle of which was the pump tubing (Harvard Apparatus). The smallest of the sections was linked, using an adaptor connector, to PE-50 tubing (which had been previously soaked in alcohol for at least 2 days). This PE-50 tubing was for insertion into the renal artery. The largest size tubing was placed into the 1 liter of room temperature L-15. The pump was turned on for a brief time, allowing all tubing to be filled with L-15 medium to remove all air bubbles from the tubing. The skin covering the abdominal cavity was cut horizontally. A light spray of alcohol was applied to the area to remove pieces of hair, followed by a horizontal cut in the same area through the muscle; exposing the internal organs. […]

Row | Structure (SMILES) | histological preservation as assessed by light microscopy (screen of pharmacological agents) (rat kidneys [1]) | degree of apoptosis (Apoptag staining) (rat kidneys [2]) | glomerular ultrastructure (electron microscopy) (rat kidney tissue) | tubular ultrastructure (electron microscopy) (rat kidney tissue) | Na+-K+-ATPase-α1 expression normalized to β-actin, FIG. 2 (Na+-K+-ATPase-α1) | total urine volume, FIG. 4C (rat kidneys [3]) | rapid increase in perfusion pressure observed in L-15 alone kidneys, FIG. 3 (rat kidneys [4]) | histology at the light microscopic level (rat kidneys [1]) | histology score (0 = unrecognizable micro-structure, 10 = 30-minute flushed kidney), FIG. 1 (rat kidneys [1]) | initial renal perfusion pressure, FIG. 3 (rat kidneys [4]; L-15 alone approximately 50 mm Hg)
1 | NC(=O)c1cccc(N)c1 [3-aminobenzamide] | mild protection | – | – | – | – | – | – | – | – | –
2 | C[C@]12CCC(=O)C=C1CC[C@@H]1[C@@H]2[C@@H](O)C[C@]2(C=O)[C@@H](C(=O)CO)CC[C@@H]12 [Aldosterone, aldosterone] | mild protection | – | – | – | – | – | – | – | – | –
3 | Cc1ccc(C)c(OCCCC(C)(C)C(=O)O)c1 [gemfibrozil] | moderate histological preservation | reduced the degree of apoptosis | slightly improved | only marginally better | slightly higher | increased total urine volume | delayed | modestly improved | statistically significantly improved the histological score | –
4 | OC[C@@H](O)[C@@H](O)[C@H](O)[C@H](O)CO [mannitol] | moderate histological preservation | reduced the degree of apoptosis | slightly improved | only marginally better | nearly undetectable | increased total urine volume | more so | modestly improved | did not achieve statistical significance | approximately 25 mm Hg
5 | Nc1cc(N2CCCCC2)nc(N)[n+]1OS(=O)(=O)[O-] [minoxidil sulfate] | mild protection | – | – | – | – | – | – | – | – | –
6 | O=c1[nH]c(=O)c2[nH]c(=O)[nH]c2[nH]1 [uric acid] | mild protection | – | – | – | – | – | – | – | – | –
